Entries after “also recorded” stand apart in the source; their conditions may differ.
Assays:
[1] = tested on: broncho-constriction caused by inhalation of acetylcholin; experiment: Forced expiration (spirography, flow-volume curve) at the end of inhalatory acetylcholin provocation in rats under i.v. infusion; format: in vivo, wistar rats
Experimental: (§1) A total of 33 female 12 week wistar rats having body weights of 300 g served as test animals. The design of the study was that of a simple blind approach. On each of the experiment days, animals of the control group and of the verum group were measured.
Employing a test animal body plethysmograph allowed for continuous measurement of the respiration volume (VT), respiration frequency (f), respiration minute volume (MV), resistance of the lung (RL), dynamic compliance (Cdyn), respiration flow (F) and transpulmonary pressure (PTP) of a narcotized, intubated and spontaneously breathing rat. Circulation monitoring was accomplished by EKG recording with evaluation of the heart frequency (HR).
After steady state conditions were attained the initial values of spontaneous respiration were measured first. […] In each case evaluations of the continuously determined spontaneous parameters were made 5 minutes after the beginning of the infusion before an inhalatory acetylcholin (ACh) provocation was made (basic values before Ach provocation).
By means of an injectomar device the test animals were infused 0.5 ml of solution continuously over a total of 10 minutes.
(§2) 5 minutes after the beginning of the infusion each rat was provoked by inhalation of a defined amount of an ACh aerosol. Evaluation of the spontaneous respiration parameters for each animal was performed after a total inhalation volume of 600 ml (values at the end of ACh provocation).
To complete the experiments, a forced expiration was performed on each animal in hyperventilation induced apnea. Flow-volume and flow-time (spirography) relations were recorded. The flow-volume curve allows for the evaluation of peak expiratory flow (=PEF), maximum mid-expiratory flow (=MMEF), and flow at 75, 50, 25, and 10% of the forced vital capacity (e.g. FEF 75). Spirography of rats primarily yields the forced vital capacity (FVC) and the expired volume after 0.05, 0.10, 0.20 and 0.40 seconds as an absolute value in ml (e.g. FEV 0.05) or in percent of FVC (e.g. FEV 0.05%).

[2] = tested on: spontaneous respiration parameters (F, PTP, VT, Cdyn, RL, f, MV); experiment: Spontaneous respiration parameters by body plethysmograph in narcotized rats; format: in vivo, wistar rats; details: for Effect of infusion on spontaneous respiration parameters after ACh provocation: after total inhalation of 600 ml ACh, groups B-D versus control
Experimental: as §1
After steady state conditions were attained the initial values of spontaneous respiration were measured first. Thereafter, a randomized infusion of placebo, urodilatin, or ANP was started. In each case evaluations of the continuously determined spontaneous parameters were made 5 minutes after the beginning of the infusion before an inhalatory acetylcholin (ACh) provocation was made (basic values before Ach provocation).
as §2

[3] = cited from earlier work
[4] = tested on: bronchial asthma (lung function parameters); experiment: Lung function in patients with bronchial asthma under 40 minute i.v. infusion; format: in vivo, human; details: for FEV1.0 versus pre values and 20 ng/kg/min group: after 10 minutes of infusion; for PEF, MEF75, MEF50 and MEF25: during infusion; for VCmax versus pre values: during infusion and until 10 minutes thereafter
Source text: The anamnesis gave no evidence for an exacerbation of the disease in the last 8 weeks. No nicotine abuse was known from any of the patients. Additional inclusion criteria were defined by an expiratory one-second-capacity (FEV1.0) of 40 to 70% of the maximum vital capacity (VCmax) before administration of a broncho-spasmolytic agent, an effect of a β2 -sympathomimetic on FEV1.0 of ≥15%, no alteration of the maintenance antiobstructive treatment and no administration of oral corticoids in the last 4 weeks before the beginning of the study. Within 8 hours before the beginning of the examinations no inhalatory application of a β2 -sympathomimetic must have occurred anymore.

[5] = group B, 40 ng/kg/min i.v. infusion, end of ACh provocation
[6] = group B, 40 ng/kg/min, 5 minutes after beginning of infusion, before ACh

CC[C@H](C)[C@@H]1NC(=O)[C@H](CCCNC(=N)N)NC(=O)[C@H](CC(=O)O)NC(=O)[C@H](CCSC)NC(=O)[C@H](CCCNC(=N)N)NC(=O)CNC(=O)CNC(=O)[C@H](Cc2ccccc2)NC(=O)[C@@H](NC(=O)[C@H](CO)NC(=O)[C@H](CO)NC(=O)[C@H](CCCNC(=N)N)NC(=O)[C@H](CCCNC(=N)N)NC(=O)[C@H](CC(C)C)NC(=O)[C@@H](N)CO)CSSC[C@@H](C(=O)N[C@@H](CC(N)=O)C(=O)N[C@@H](CO)C(=O)N[C@@H](Cc2ccccc2)C(=O)N[C@@H](CCCNC(=N)N)C(=O)N[C@@H](Cc2ccc(O)cc2)C(=O)O)NC(=O)CNC(=O)[C@H](CC(C)C)NC(=O)CNC(=O)[C@H](CO)NC(=O)[C@H](CCC(N)=O)NC(=O)[C@H](C)NC(=O)CNC1=O [ANP, atrial natriuretic peptide, reference compound]
Effect on the ACh induced changes of the parameters of forced expiration ([1]; 70.305 ng/kg/min, equimolar with 80 ng/kg/min urodilatin): less clearly seen
Flow-volume curve parameters versus control group A ([1]; group D, 70.305 ng/kg/min i.v. infusion (equimolar to group C), end of ACh provocation): significant increase only of PEF and FEF 75
Effect of infusion on spontaneous respiration parameters after ACh provocation [2]: without a significant effect
Hypotensive effect ([3]; in vivo, iv): hypotensive effect observed

CC(C)(C)NCC(O)c1ccc(O)c(CO)c1 (stereo not shown) [Salbutamol, reference compound]
FEV1.0 ([4]; 1.25 mg Salbutamol inhaled, all three groups): significant increase in FEV1.0
Flow-volume parameters (PEF, MEF75, MEF50, MEF25) ([4]; Salbutamol inhalation, all dosage groups): significant effect

urodilatin
Protective effect at 40 ng/kg/min versus ANP in a twofold higher dose on a molar basis ([1]; 40 ng/kg/min versus 70.305 ng/kg/min ANP): clearly more effective than ANP; also recorded: more obvious protective effect than ANP
Protection from broncho-constriction (improved forced expiration) ([1]; animal experiments, parenteral administration): obvious protection
Effect compared with equimolar doses of ANP ([1]; broncho-constriction by inhaled acetylcholin, parenteral administration): more than two times greater
FEV 0.1% (expired volume after 0.1 seconds based on FVC) versus control group A [1, 5]: significant improvement
PEF, MMEF, FEF 75, FEF 50 and FEF 25 of the forced expiratory flow-volume curve versus control group A [1, 5]: clear improvement
PEF, MMEF, FEF 75, FEF 50 and FEF 25 of the forced expiratory flow-volume curve versus control group A ([1]; group C, 80 ng/kg/min i.v. infusion, end of ACh provocation): clear improvement
Effectiveness and duration of action versus ANP (flow-volume curves, FIGS. 1 to 3) ([1]; groups B and C (40, 80 ng/kg/min) versus group D (70.3 ng/kg/min ANP)): more effective and acts for a longer period of time
Other FEV and FEV % values, comparison of groups A-D ([1]; i.v. infusion 40 or 80 ng/kg/min, end of ACh provocation): not significantly distinct
Effect on the ACh induced changes of the parameters of forced expiration relative to control group A ([1]; infusion of 40 and 80 ng/kg/min): clearly protective effects
Effect of infusion on spontaneous respiration parameters after ACh provocation [2]: without a significant effect
Cdyn versus initial values [2, 6]: small, significant decrease
PTP and RL versus initial values [2, 6]: slight, significant increase
Respiration frequency versus initial values ([2]; group C, 80 ng/kg/min, 5 minutes after beginning of infusion, before ACh): slight, significant decrease
FEV1.0 versus pre values ([4]; 20 ng/kg/min, any time during or after the infusion): did not show any significant effect
Flow-volume parameters ([4]; 20 ng/kg/min, p<0.05 after 10 and 30 minutes of infusion): increase of the MEF75 measurement value alone
FEV1.0 versus initial values 30 minutes after completion of the infusion ([4]; 40 ng/kg/min): still significantly different from the initial values
Maxima of PEF, MEF75, MEF50, MEF25 under infusion versus results after Salbutamol inhalation ([4]; 40 ng/kg/min): not significantly different from the measurement results after Salbutamol inhalation, except for MEF50
Time of maximum FEV1.0 values ([4]; 40 ng/kg/min infusion): 30 min
FEV1.0 versus pre values and 20 ng/kg/min group ([4]; 40 ng/kg/min): significant increase
PEF, MEF75, MEF50 and MEF25 ([4]; 40 ng/kg/min): increased during the infusion
VCmax versus pre values ([4]; 40 ng/kg/min): significant increase
Maxima of PEF, MEF75, MEF50, MEF25 under infusion versus results after Salbutamol inhalation ([4]; 60 ng/kg/min): not significantly different
Maximum FEV1.0 effect versus values after inhalation of Salbutamol ([4]; 60 ng/kg/min): no longer significantly different
Time of maximum effect on FEV1.0 ([4]; 60 ng/kg/min infusion): 20 min
FEV1.0 versus pre values and 20 ng/kg/min group ([4]; 60 ng/kg/min): significant increase
PEF, MEF75, MEF50 and MEF25 ([4]; 60 ng/kg/min): increased during the infusion
VCmax versus pre values ([4]; 60 ng/kg/min): significant increase
VCmax maxima versus results after Salbutamol inhalation ([4]; 40 and 60 ng/kg/min): did not show any significant differences
MEF50, difference between 40 and 60 ng/kg/min ([4]; after 20 minutes of infusion): significant difference
Broncho-dilatation ([4]; intravenous infusion of 40 and 60 ng/kg/min over 40 minutes, clinically stable bronchial asthma): did not result in a significant broncho-dilatation
Glomerular filtration rate, excretion of water, sodium and chloride ([3]; intravenous application): increase the glomerular filtration rate, the excretion of water, sodium and chloride

— patent publication US5571789A (Haemopep Pharma GmbH, priority 1992, dated 1996)
